{"source": "patent US20250268938A1", "about": "“SMALL MOLECULE-REGULATED CELL SIGNALING EXPRESSION SYSTEM” (Outpace Bio, Inc., priority 2021, published 2025)", "molecules": {"B1": {"name": "Conventional CAR: conventional, single-chain ROR1-CAR (protein)", "chain": "CPPCPMFWVLVVVGGVLACYSLLVTVAFIIFWVKRGRKKLLYIFKQPFMRPVQTTQEEDGCSCRFPEEEEGGCELRVKFSRSADAPAYQQGQNQLYNELNLGRREEYDVLDKRRGRDPEMGGKPRRKNPQEGLYNELQKDKMAEAYSEIGMKGERRRGKGHDGLYQGLSTATKDTYDALHMQALPPR"}}, "key": {"[1]": {"tested_on": "Jurkat CD3ζ-signaling reporter line", "assay": "CAR signaling (tdTomato) in Jurkat CD3ζ-signaling reporter line", "assay_type": "cell-based", "conditions": "for CAR signaling, tdTomato intensity, drug switch: grazoprevir at time zero, washed and danoprevir at 48 hours, tracked additional 72 hours", "description": "(§1) For IncuCyte analysis of CD3ζ-signaling tdTomato reporter line with CARs and DNCR2-casp-9 kill switch (with EGFP transduction maker), 5e4 CAR+ cells were plated per well in poly-D-Lys coated plate in which 5e4 Jeko1 cells were previously seeded. Drug (e.g., grazoprevir, danoprevir) was added to given final concentration and cells were imaged for tdTomato and EGFP signal at 20×, 800 msec exposure, 4 images/well, every 3 hours. Cells were removed from the Incucyte plate to a v-bottom plate for 2 washes in PBS at 48 hours when the drug condition was changed.\n(§2) Coculture for flow analysis of the CAR/kill switch constructs was setup 24 hours before analysis. CAR-positive cells (le5 cells; part I and part II positive, i.e., ROR1+ and EGFRt+ (part II marker)) were mixed with le5 Jeko1 cells and drug. Cells were analyzed for ROR1, EGFRt ([…]), tdTomato, EGFP, and viability as described hereinbelow.\n(§3) To evaluate the use of two drug inputs to control two different signaling outputs, we used a Jurkat cell CD3ζ-signaling reporter line expressing the red fluorescent protein tdTomato to track CAR signaling, and the loss of the transduction marker (EGFP) of the DNCR2-caspase-9 construct to track Jurkat cell death.\n(§4) We tested the ability to switch between CAR signaling and induction of apoptosis over time in an IncuCyte assay. Briefly, the CD3ζ-signaling reporter line expressing the dual-function GNCR1-CAR/DNCR2-casp9 was mixed 1:1 with Jeko1 cells and treated with 500 nM grazoprevir or danoprevir, or DMSO. Over a period of 48 hours, CAR signaling was tracked by tdTomato intensity and drug-induced cell death (i.e., activation of the safety switch) was monitored by tracking the transduction marker EGFP intensity.\n(§5) We then tested the ability to switch from induction of CAR signaling with grazoprevir to induction of apoptosis with danoprevir. Briefly, CAR signaling was activated by grazoprevir treatment at time zero. After 48 hours, the cells were washed and treated with danoprevir. CAR signaling (tdTomato intensity) and cell viability (EGFP intensity) were tracked over an additional 72-hour period."}, "[2]": {"tested_on": "Jurkat CD3ζ-signaling reporter line", "assay": "Drug-induced cell death (loss of EGFP transduction marker) in Jurkat CD3ζ-signaling reporter line", "assay_type": "cell-based", "description": "as §1, §2\nPercent killing was calculated by gating on live cells, then calculating 100*((percent GFP positive DMSO condition)−(percent GFP positive drug condition))/(percent GFP positive DMSO condition).\nas §3, §4, §5"}, "[3]": {"tested_on": "Jurkat cells", "assay": "Kill switch percent killing in Jurkat cells (flow cytometry)", "assay_type": "cell-based", "description": "Kill switch-positive cells (le5) were incubated for 24-48 hours with inducer drug before staining and analysis for death. Conditions were normalized to contain about 50% transduction positive (+) cells by adding untransduced Jurkat or primary T cells in order to get accurate statistics on death.\nFlow cytometry was performed on a Ze5 cytometer (Biorad). To determine expression of markers, between 1×10^5-2×10^5 total cells were transferred to a U-bottom 96 well culture dish (Corning). Cells were washed twice with Cell Staining Buffer (BioLegend), then stained with Zombie Violet (1:1000, BioLegend) and ROR1-FC for ROR1-specific CAR constructs (20 min at room temperature). Cells were washed twice in Cell Staining Buffer, then stained with Annexin V-PE (BD) in 1× Annexin V Binding Buffer (BD) for 15 min at room temperature. After staining, cells were washed once with Annexin V Binding Buffer, resuspended in AnneinV Binding Buffer and immediately analyzed.\n(§6) Flow cytometry data was analyzed using FlowJo 10 (Tree Star). Percent killing was calculated by gating on live cells, then calculating 100*((percent GFP positive DMSO condition)−(percent GFP positive drug condition))/(percent GFP positive DMSO condition).\nWe first tested for drug-induced death of Jurkat cells by fusing NS3a and DNCR2 separately to the catalytic domain of caspase-9 (NCDC). The small molecule inducible homodimer FKBP-F36V (iCasp9), which is dimerized by AP1903 (rimiducid) and the inducible heterodimer FKBP/rapamycin/FRB dimer (rapaCasp9) were used as controls. Briefly, Jurkat cells expressing NCDC, iCasp9, or rapaCasp9 were exposed to danoprevir, rimiducid or rapamycin, respectively, for 24 hours and analyzed by flow cytometry with gating set to measure killing in the top about 10% of cells expressing the highest amount of the GFP kill switch transduction marker.\nTo evaluate the kill switch designs of FIG. 8A, constructs were expressed in Jurkat cells, treated with 500 nM danoprevir (DNCR2-casp-9) or 500 nM grazoprevir (GNCR1-casp-9) and cell death measured by percent killing as described herein above.\nThe miniaturized versions of DNCR2, D1 and D9, were fused to caspase-9 and co-expressed in Jurkat cells with homo-oligomerized NS3a scaffolds. We also evaluated a CAR construct that included an additional copy of NS3a (CAR-2×NS3a). The original DNCR2-casp-9 was used as a control. Jurkat cells expressing different DNCR2 variants fused to caspase-9 along with CAR-NS3a, CAR-NS3a-NS3a, or dimer-NS3a were treated with 500 nM danoprevir and cell death was measured by percent killing as described herein above.\n(§7) We explored the ability of other human killing domains to induce cell death in Jurkat and primary human T cells. We fused FKBP-F36V to a panel of killing domains that included caspase-9 D330A, caspase-9, caspase-1, caspase-4, and the necroptosis-inducing protein RIPK3. Briefly, Jurkat and primary human CD4+/CD8+ T cells expressing FKBP(F36V)-fused killing domains were treated with 10 nM rimiducid and cell death was measured by percent killing as described herein above."}, "[4]": {"tested_on": "danoprevir/NS3a complex", "conditions": "cited from earlier work"}, "[5]": {"tested_on": "primary human CD4+/CD8+ T cells", "assay": "Kill switch percent killing in primary human T cells", "assay_type": "cell-based", "conditions": "10 nM rimiducid, range of transduction levels", "description": "Pre-selected, cryopreserved primary human CD4 T cells from normal donors were obtained from Bloodworks (Seattle WA). Human T cells were cultured in OpTmizer medium (Thermo Fisher) supplemented with Immune Cell Serum Replacement (Thermo Fisher), 2 mM L-glutamine (Gibco), 2 mM Glutamax (Gibco), 200 IU/ml IL-2 (R&D systems), 120 IU/ml IL-7 (R&D systems), and 20 IU/ml IL-15 (R&D systems).\nFor lentiviral transduction, T cells were stimulated with a 1:100 dilution of T cell TransAct (Miltenyi) for 30 hours. Virus was then added to T cells for 18-24 hours. […]\nFlow cytometry was performed on a Ze5 cytometer (Biorad). […] After staining, cells were washed once with Annexin V Binding Buffer, resuspended in AnneinV Binding Buffer and immediately analyzed.\nas §6\nas §7, with “We fused FKBP-F36V to a panel of killing domains that included caspase-9 D330A, caspase-9, caspase-1, caspase-4, and the necroptosis-inducing protein RIPK3.” left out"}, "[6]": {"tested_on": "CD69 expression in CAR expressing Jurkat cells", "assay": "Induction of CD69 expression in CAR expressing Jurkat cells co-cultured with Jeko1 cells (flow cytometry)", "assay_type": "cell-based", "conditions": "conventional single-chain ROR1-CAR Jurkat cells with Jeko1 cells; 500 nM danoprevir", "description": "NS3a-based regulated CARs were evaluated using lentiviral transduction of T cells and flow cytometry analysis. The CARs evaluated are specific for the ROR1 antigen expressed on the target cell line Jeko1. The Jurkat and Jeko1 cell lines were obtained from American Type Culture Collection (Manassas, VA) and maintained in RPMI 1640 media with Glutamax (Gibco) containing 10% fetal calf serum (Gibco). For lentiviral transduction, Jurkat cells were incubated with lentivirus in complete media plus LentiBOOST at the manufacturers recommended concentration (Sirion Biotech). Eighteen hours after transfection, lentivirus and LentiBOOST were diluted by addition of 1 volume fresh media.\nFor flow analysis of induction of CD69 expression, Jurkat cells were mixed 1:1 with Jeko1 cells or Jeko1-ROR1-KO cells. Drug was added to a final concentration of 500 nM. Cultures were incubated with drug for 24 hours before flow analysis for surface markers.\nFlow cytometry of CAR experiments was performed on a Ze5 cytometer (Biorad). […] Flow cytometry data was analyzed using FlowJo 10 (Tree Star).\nThe three NS3a-based regulated CARs described hereinabove with reference to FIG. 1B were evaluated in the Jurkat cell line. […] CD69 expression, a T cell activation marker, was detected by flow cytometry, gating on live CD3+/ROR1+ cells."}, "[7]": {"conditions": "IncuCyte, over 48 hours, GNCR1-CAR/DNCR2-casp9 cells 1:1 with Jeko1, 500 nM drug"}}, "data": [{"molecule": "CC(C)(C)OC(=O)N[C@H]1CCCCC/C=C\\[C@@H]2C[C@@]2(C(=O)NS(=O)(=O)C2CC2)NC(=O)[C@@H]2C[C@@H](OC(=O)N3Cc4cccc(F)c4C3)CN2C1=O", "note": "[danoprevir, (2R,6S,12Z,13aS,14aR,16aS)-14a-[(Cyclopropylsulfonyl)carbamoyl]-6-({[(2-methyl-2-propanyl)oxy]carbonyl}amino)-5,16-dioxo-1,2,3,5,6,7,8,9,10,11,13a,14,14a,15,16,16a-hexadecahydrocyclopropa[e]pyrrolo[1,2-a][1,4]diazacyclopentadecin-2-yl 4-fluoro-1,3-dihydro-2H-isoindole-2-carboxylate]", "values": [{"measurement": "CAR signaling, tdTomato intensity, drug switch", "setting": "[1]", "result": "declines"}, {"measurement": "effect on Jurkat cells expressing a conventional CAR with DNCR2-casp-9", "setting": "[2]; 500 nM drug", "result": "no effect"}, {"measurement": "percent killing (safety-switch)", "setting": "[2]; GNCR1-CAR/DNCR2-casp-9 system, 500 nM drug, loss of EGFP-positive population relative to DMSO", "result": "triggered"}, {"measurement": "cell viability, EGFP intensity", "setting": "[2]; [7]", "result": "decreased cell viability"}, {"measurement": "cell viability, EGFP signal, drug switch", "setting": "[2]; danoprevir added at 48 hours, with or without previous grazoprevir treatment", "result": "began to drop"}, {"measurement": "percent killing, two-chain direct dimerization design NCDC", "setting": "[3]; NS3a-casp-9/DNCR2-casp-9 (NCDC), drug titration, 24 hours, top about 10% GFP-expressing Jurkat cells", "result": "modest killing"}]}, {"molecule": "DNCR2: danoprevir/NS3 complex reader polypeptide (SSDEEEARELIERAKEAAERAQEAAERTGDPRVRELARELKRLAQEAAEEVKRDPSSSD)", "values": [{"measurement": "affinity for the danoprevir/NS3a complex", "setting": "[4]", "result": "high affinity"}]}, {"molecule": "RIPK3: FKBP-F36V fused to the necroptosis-inducing protein RIPK3", "values": [{"measurement": "percent killing, FKBP(F36V)-fused killing domains", "setting": "[3]; Jurkat cells, 10 nM rimiducid, range of transduction levels", "result": "not able to induce cell death"}, {"measurement": "percent killing, FKBP(F36V)-fused killing domains", "setting": "[5]", "result": "not able to induce cell death"}]}, {"molecule": "C=C[C@@H]1C[C@]1(NC(=O)[C@@H]1C[C@@H]2CN1C(=O)[C@H](C(C)(C)C)NC(=O)O[C@@H]1C[C@H]1CCCCCc1nc3ccc(OC)cc3nc1O2)C(=O)NS(=O)(=O)C1CC1.O", "note": "[grazoprevir]", "values": [{"measurement": "CAR signaling, tdTomato intensity", "setting": "[1]; [7]", "result": "only activated"}, {"measurement": "CAR signaling, tdTomato gMFI", "setting": "[1]; dual-function GNCR1-CAR/DNCR2-casp-9, 500 nM drug, flow cytometry", "result": "activated"}, {"measurement": "CAR signaling, tdTomato intensity, drug switch", "setting": "[1]", "result": "increases"}, {"measurement": "effect on Jurkat cells expressing a conventional CAR with DNCR2-casp-9", "setting": "[2]; 500 nM drug", "result": "no effect"}]}, {"molecule": "B1", "values": [{"measurement": "CD69 expression, regulation in response to danoprevir", "setting": "[6]", "result": "no significant regulation"}]}]}
